We go through 38 compounds from PubChem BioAssay AID2423 (Broad Institute, 2010).

SMILES strings stand for the structures. Results filed as inconclusive are left out. Calls of active or inactive are those of the source. No rule for the calls is given here. Some results are limits rather than exact numbers.

The test system of this assay is C. albicans CaCi-8 + fluconazole, Alamar Blue growth, 48 h. The assay can be described thus: resistant C. albicans growth inhibition with fluconazole, dose response, CaCi-8 strain, Alamar Blue fluorescence (AID 2423). (Resazurin is reduced to fluorescent resorufin, in cell work by metabolically active cells.)
Broadly, the EC50 is the concentration giving half of the maximal effect. For `Nc1c2c(nc3sc4c(c13)CCCCC4)CCCCC2`, the concentration giving a half-maximal response (EC50) was 5550 nM.
As to `CCCC(=O)NC(c1ccc(N(C)C)cc1)c1ccc2cccnc2c1O` (stereo not drawn), the EC50 is 627 nM.
With `CCOC(=O)N=Nc1c2ccccc2c2nc3no[nH]c3nc12`, the EC50 was > 15000 nM (inactive).
In the case of `O=C(N/N=C\C=C\c1ccc([N+](=O)[O-])o1)c1cccs1` it was > 16000 nM (inactive); in that of `CC1CCN(Cc2c(C(=O)N/N=C/c3cc(Br)ccc3O)nnn2-c2nonc2N)CC1`, 908 nM; in that of `COc1ccc(OC)c(NC(=O)c2c3c(nc4ccccc24)CCC3)c1`, 6600 nM.
As to `Brc1ccc(CSc2nnc(-c3cnccn3)n2Cc2ccco2)cc1`, the EC50 was 2010 nM.
As for `Oc1cccc(Nc2ncnc3c2oc2ccccc23)c1`, the figure is 6650 nM.
As for `CCOc1ccc(NC(=O)NNC(=O)c2ccc3ccccc3c2O)cc1`, the figure is 2460 nM; as for `Cc1ccc([N+](=O)[O-])cc1-c1[nH]c(-c2ccc(O)c(O)c2)nc1-c1ccccc1`, > 15000 nM (inactive).
As for `CCN=c1scc(C)n1/N=C/c1ccc(O)c(O)c1O`, the figure is > 15000 nM (inactive).
In the case of `COc1cccc(C2CC(c3ccc(NS(C)(=O)=O)cc3)=NN2C(=O)c2ccccc2)c1OC` (stereo not drawn), the half-maximal effective concentration (EC50) is 3730 nM.
Take `O=C(CNc1ccccc1F)N/N=C/C1CC=CCC1` (stereo not drawn): the EC50 was > 16000 nM (inactive).
As for `O=C(Oc1ccc(Cl)c2cccnc12)c1cccc([N+](=O)[O-])c1`, the figure is 12300 nM; as for `CCOC(=O)Cc1csc(NC(=O)CSc2nc3sc(C(=O)O)c(C)c3c(=O)[nH]2)n1`, > 16000 nM (inactive); as for `CN(C/C=C/C#CC(C)(C)C)Cc1cccc2ccccc12`, 2590 nM.
In the case of `O=C(c1cc2ccccc2cc1O)N1CCN(c2ccccc2O)CC1` it was 209 nM; in that of `CCN(CC)c1ccc(/C=C/C(=O)c2cccnc2)cc1`, below 120 nM; in that of `CCCCCn1c(=O)c(C(=O)NCc2ccncc2)c(O)c2ccccc21`, 1720 nM.
As for `CC(C)(C)c1ccc(OCCCC(=O)NNC(=O)c2ccccc2O)cc1`, the figure is 2560 nM; as for `CC1=C/C(=N\NC(=S)NCCc2ccccc2)CC(C)(C)C1`, > 15000 nM (inactive); as for `O=C(COc1ccc([N+](=O)[O-])cc1)NNC(=S)NC(=O)c1ccc(Br)cc1`, 2540 nM.
Consider `COc1ccccc1N1CCN(C(=O)c2cc3cc(Cl)ccc3[nH]2)CC1`, for which the EC50 was > 15000 nM (inactive).
With `O=C(NCC1CCCO1)c1cc2n(n1)C(C(F)(F)F)CC(c1ccc(Br)cc1)N2` (stereo not drawn), the EC50 was 7570 nM.
In the case of `O=C(Cc1ccccc1)Nc1nonc1NC(=O)c1ccccc1` it was 477 nM.
In the case of `c1ccc(CC2CCN(c3ncnc4sccc34)CC2)cc1` it was 1530 nM; in that of `Oc1c(C(Nc2cccc(C(F)(F)F)c2)c2cccnc2)ccc2cccnc12` (stereo not drawn), 2070 nM; in that of `COc1ccc(C(=O)Nc2ccccc2C(=O)Nc2ccccc2C(=O)O)cc1`, 7540 nM.
As for `O=C1c2ccccc2NC(c2ccc(-c3ccc(Br)cc3)o2)N1O` (stereo not drawn), the figure is 2120 nM; as for `CC(=O)N(O)CCCCCNC(=O)CCC(=O)N(O)CCCCCNC(=O)CCC(=O)N(O)CCCCCN`, 727 nM.
Take `CCCCOc1cccc(C2C(C(=O)c3ccc(C)o3)=C(O)C(=O)N2Cc2ccco2)c1` (stereo not drawn): the EC50 is 394 nM.
For the compound `Cc1cccc(NC(=O)CSC(N)=O)c1C`, the EC50 was > 15000 nM (inactive).
As for `CCCC(=O)NC(c1ccccc1Cl)c1ccc2cccnc2c1O` (stereo not drawn), the figure is 516 nM; as for `CS/C(=N\S(=O)(=O)c1cccs1)Nc1ccc(F)c(Cl)c1`, 1890 nM.
On to `O=C(COc1ccc(Cl)cc1)NC1CCSC1=O` (stereo not drawn), for which the EC50 was > 16000 nM (inactive).
As for `Cc1ccc(C(=O)Nc2nc3ccccc3c(=O)s2)cc1`, the figure is 458 nM; as for `CC(C)c1ccc(OCC(=O)Nc2cccc(C(=O)Nc3ccccc3C(=O)O)c2)cc1`, > 15000 nM (inactive); as for `COc1ccc(-c2nnc(NC(=O)c3ccc(F)cc3)o2)cc1`, 246 nM.
